Reference: US7264314B2, “Adrenocorticotropic hormone analogs and related methods” (priority 2004, dated 2007)
No end group written: not given here.

Test system: ACTH-induced serum corticosterone in dexamethasone-suppressed mice
Experiment: in vivo Serum Corticosteroid Inhibition Assay
Parameters: species or system FVB/N mice
Conditions: for reduction in serum corticosterone levels: ACTH alone = 100%; for serum corticosterone level at 180 minutes: blood one hour later; for corticosterone induction as percent of that of wildtype ACTH: 1 hour after last injection
Description: An in vivo Serum Corticosteroid Inhibition Assay measures the level of corticosteroid or corticosterone in the blood stream of a subject after administering a compound having a first corticosteroid-producing biological activity and a test compound. The compound having the corticosteroid-producing biological activity can be any compound known to induce a detectable increase in corticosteroid production. The test compound can be administered before the corticosteroid-producing compound, in combination with the corticosteroid-producing compound, and/or after the corticosteroid-producing compound. The corticosteroid-producing compound is preferably ACTH, but can also be an ACTH analog with a known corticosteroid-producing biological activity. By performing a series of in vivo Serum Corticosteroid Inhibition Assays using ACTH analog test compounds, ACTH analogs that inhibit the production of corticosteroid relative to the corticosteroid-producing compound used can be identified. Preferably, the ACTH analogs identified in this manner inhibit the production of corticosteroid in the presence of endogenous unmodified ACTH.
The in vivo Serum Corticosteroid Inhibition Assay can include sequential administration of the test compound and the corticosteroid-producing compound by the following steps: first, an agent to suppress endogenous ACTH production was administered to a mouse subject, such as an intraperitoneal injection of dexamethasone; second, after waiting a suitable period of time for suppression of endogenous ACTH production (e.g., 1.5–2.0 hours), a test compound was administered to the mouse by a suitable method, such as intraperitoneal injection; third, after waiting a suitable period of time (e.g., 1 hour) for action of the test compound, a compound with corticosteroid-producing activity can be administered to the mouse by a suitable method, such as intraperitoneal injection; and fourth, after waiting a suitable period of time for the biological activity of both administered compounds to occur (e.g., 1 hour), a blood sample was taken from the subject and the level of serum corticosterone was determined by a suitable method, such as a competitive radioimmunoassay using ^125I RIA kit (ICN, Costa Mesa, Calif.). Optionally, steps two and three can be reversed (administering the corticosteroid-producing compound first, followed by administration of the test compound). The in vivo Serum Corticosteroid Inhibition Assay can also include co-administration of the test compound and the corticosteroid-producing compound by the following steps: first, an agent to suppress endogenous ACTH production was administered to a mouse subject, such as an intraperitoneal injection of dexamethasone; second, after waiting a suitable period of time for suppression of endogenous ACTH production (e.g., 1.5–2.0 hours), the corticosteroid-producing compound and a test compound were co-administered to the mouse by a suitable method, such as intraperitoneal injection; and third, after waiting a suitable period of time for the biological activity of both administered compounds to occur (e.g., 1 hour), a blood sample was taken from the subject and the level of serum corticosterone was determined by a suitable method, such as a competitive radioimmunoassay using ^125I RIA kit (ICN, Costa Mesa, Calif.). Also, in some embodiments, the first step in any in vivo Serum Corticosteroid Inhibition Assay can be replaced by a measurement of the initial endogenous corticosteroid or corticosteroid level in the blood of the subject in the manner of step four, instead of administering the agent to suppress ACTH production. Example 2 describes murine in vivo Serum Corticosteroid Inhibition Assays in detail.
A series of separate in vivo Serum Corticosteroid Inhibition Assays were performed to identify ACTH analogs that inhibit ACTH adrenal hormone production in vivo. […]

Substance: N-Ser^1-Tyr-Ser-Met-Glu^5-His-Phe-Arg-Trp-Gly^10-Lys-Pro-Val-Gly-Lys^15-Arg-Ala-Ala-Trp-Val^20-Lys-Val-Tyr-Pro-Ac (SYSMEHFRWGKPVGKRAAWVKVYP; not fully specified (C-terminus); printed as N-Ser1-Tyr-Ser-Met-Glu5-His-Phe-Arg-Trp-Gly10-Lys-Pro-Val-Gly-Lys15-Arg-Ala-Ala-Trp-Val20-Lys-Val-Tyr-Pro-Ac) [AT814]
- reduction in serum corticosterone levels (ACTH analog 30 minutes before ACTH): ~65%
- serum corticosterone level at 180 minutes (ACTH analog at 90 minutes, mACTH(1–24) at 120 minutes after dexamethasone, listed as (KKRRP15-19KRAAW) mACTH(1–24)): 175 ± 27 ng/mL
- serum corticosterone level at 180 minutes (ACTH analog at 90 minutes, mACTH(1–24) at 120 minutes after dexamethasone, listed as (KKRRP15-19KRMW) mACTH(1–24)): 175 ± 27 ng/mL
- reduction in serum corticosterone levels (ACTH analog concurrently with ACTH): ~90%
- serum corticosterone level at 180 minutes (ACTH analog together with mACTH(1–24) at 120 minutes after dexamethasone): 51 ± 8 ng/mL
- serum corticosterone level at 180 minutes (ACTH analog together with mACTH(1–24) at 120 minutes after dexamethasone, listed as (KKRRP15-19KRAAW) mACTH(1–24)): 51 ± 8 ng/mL
- corticosterone induction as percent of that of wildtype ACTH (applied 30 minutes before the ACTH injection): 35%
- corticosterone induction as percent of that of wildtype ACTH (applied at the same time as the ACTH injection): 10%
